Test system: MV-4-11 cells
Assay: Gene expression microarray analysis (Affymetrix PrimeView) and GSEA
Assay type: cell-based, human
Set-up: RFU PODN (11730768_x_at) / Fold change /veh PODN (11730768_x_at) / RFU LINC00158 (11744669_a_at) / Fold change /veh LINC00158 (11744669_a_at) / RFU DUSP10 (11751237_a_at) / Fold change /veh DUSP10 (11751237_a_at) / RFU ID3 (11757404_x_at) / Fold change /veh ID3 (11757404_x_at) / RFU PLEKHG5 (11737974_s_at) / Fold change /veh PLEKHG5 (11737974_s_at) / RFU LRRC4B (11730491_at) / Fold change /veh LRRC4B (11730491_at) / RFU GIMAP4 (11747438_a_at) / Fold change /veh GIMAP4 (11747438_a_at) / RFU KRT8 (11758183_x_at) / Fold change /veh KRT8 (11758183_x_at) / RFU CNN1 (11734310_a_at) / Fold change /veh CNN1 (11734310_a_at) / RFU VPS37D (11726825_at) / Fold change /veh VPS37D (11726825_at) / RFU C10orf10 (11716522_x_at) / Fold change /veh C10orf10 (11716522_x_at) / RFU KIR2DL2 /// KIR2DL4 /// KIR2DL5A /// KIR2DL5B /// KIR2DS1 /// KIR2DS2 /// KIR2DS3 /// KIR2DS4 /// KIR3DL3 /// KIR3DL3 /// KIR3DS1 (11738374_at) / Fold change /veh KIR2DL2 /// KIR2DL4 /// KIR2DL5A /// KIR2DL5B /// KIR2DS1 /// KIR2DS2 /// KIR2DS3 /// KIR2DS4 /// KIR3DL3 /// KIR3DL3 /// KIR3DS1 (11738374_at) / RFU C1QL1 (11718748_at) / Fold change /veh C1QL1 (11718748_at) / RFU TMPRSS4 (11747572_a_at) / Fold change /veh TMPRSS4 (11747572_a_at) / RFU HAMP (11756126_x_at) / Fold change /veh HAMP (11756126_x_at) / RFU RNFT2 (11725882_a_at) / Fold change /veh RNFT2 (11725882_a_at) / RFU NR4A2 (11747474_a_at) / Fold change /veh NR4A2 (11747474_a_at) / RFU ABCC12 (11746883_a_at) / Fold change /veh ABCC12 (11746883_a_at) / RFU TMEM136 (11760407_x_at) / Fold change /veh TMEM136 (11760407_x_at) / RFU CLDN22 /// WWC2 (11732394_at) / Fold change /veh CLDN22 /// WWC2 (11732394_at) / RFU HLA-DPB1 (11760878_x_at) / Fold change /veh HLA-DPB1 (11760878_x_at) / RFU SPINT1 (11716480_a_at) / Fold change /veh SPINT1 (11716480_a_at) / RFU GAP43 (11754022_s_at) / Fold change /veh GAP43 (11754022_s_at) / RFU A4GNT (11735810_at) / Fold change /veh A4GNT (11735810_at) / RFU PRB3 (11715151_x_at) / Fold change /veh PRB3 (11715151_x_at) / RFU TUBB4B (11761932_at) / Fold change /veh TUBB4B (11761932_at) / RFU CAPN14 (11732068_a_at) / Fold change /veh CAPN14 (11732068_a_at) / RFU TMCC2 (11721928_a_at) / Fold change /veh TMCC2 (11721928_a_at) / RFU IRGQ (11745062_a_at) / Fold change /veh IRGQ (11745062_a_at) / RFU FAM174B (11720279_a_at) / Fold change /veh FAM174B (11720279_a_at) / RFU TMPRSS4 (11748680_a_at) / Fold change /veh TMPRSS4 (11748680_a_at) / RFU FAM212B (11763350_a_at) / Fold change /veh FAM212B (11763350_a_at) / RFU PLEKHG5 (11743358_a_at) / Fold change /veh PLEKHG5 (11743358_a_at) / RFU ZSCAN30 (11745921_a_at) / Fold change /veh ZSCAN30 (11745921_a_at) / RFU CMKLR1 (11741424_a_at) / Fold change /veh CMKLR1 (11741424_a_at) / RFU LOC101060620 /// MAPK8IP1 (11723275_at) / Fold change /veh LOC101060620 /// MAPK8IP1 (11723275_at) / RFU SPTSSB (11747773_x_at) / Fold change /veh SPTSSB (11747773_x_at) / RFU PRSS12 (11739890_at) / Fold change /veh PRSS12 (11739890_at) / RFU BIN1 (11741810_x_at) / Fold change /veh BIN1 (11741810_x_at) / RFU WNT11 (11732464_a_at) / Fold change /veh WNT11 (11732464_a_at) / RFU C10orf10 (11716521_a_at) / Fold change /veh C10orf10 (11716521_a_at) / RFU C5orf56 (11738089_at) / Fold change /veh C5orf56 (11738089_at) / RFU CYB561 (11721691_x_at) / Fold change /veh CYB561 (11721691_x_at) / RFU ANKRD19P (11752326_a_at) / Fold change /veh ANKRD19P (11752326_a_at) / RFU OR2T12 /// OR2T33 /// OR2T8 (11738714_s_at) / Fold change /veh OR2T12 /// OR2T33 /// OR2T8 (11738714_s_at) / RFU VCAN (11748164_a_at) / Fold change /veh VCAN (11748164_a_at) / RFU JSRP1 (11732532_at) / Fold change /veh JSRP1 (11732532_at) / RFU KRTAP10-11 (11738290_x_at) / Fold change /veh KRTAP10-11 (11738290_x_at) / RFU MYO3A (11730013_a_at) / Fold change /veh MYO3A (11730013_a_at) / RFU EBF3 (11725865_a_at) / Fold change /veh EBF3 (11725865_a_at) / RFU CAMK2N1 (11719241_x_at) / Fold change /veh CAMK2N1 (11719241_x_at) / RFU C5orf56 (11738088_a_at) / Fold change /veh C5orf56 (11738088_a_at) / RFU OLFML3 (11715873_a_at) / Fold change /veh OLFML3 (11715873_a_at) / RFU LOC100653217 /// NTM (11731650_a_at) / Fold change /veh LOC100653217 /// NTM (11731650_a_at) / RFU MAPK11 (11762145_a_at) / Fold change /veh MAPK11 (11762145_a_at) / RFU FIZ1 (11724087_x_at) / Fold change /veh FIZ1 (11724087_x_at) / RFU OASL (11726364_x_at) / Fold change /veh OASL (11726364_x_at) / RFU SOX15 (11748057_x_at) / Fold change /veh SOX15 (11748057_x_at) / RFU CD79A (11719716_a_at) / Fold change /veh CD79A (11719716_a_at) / RFU HIST1H1D (11736915_at) / Fold change /veh HIST1H1D (11736915_at) / RFU CASKIN2 (11723855_a_at) / Fold change /veh CASKIN2 (11723855_a_at) / RFU LOC730098 (11760151_x_at) / Fold change /veh LOC730098 (11760151_x_at) / RFU OR4N2 (11742367_at) / Fold change /veh OR4N2 (11742367_at) / RFU PRRT2 (11749266_a_at) / Fold change /veh PRRT2 (11749266_a_at) / RFU SNX32 (11753110_a_at) / Fold change /veh SNX32 (11753110_a_at) / RFU CDHR5 (11726645_a_at) / Fold change /veh CDHR5 (11726645_a_at) / RFU RCAN1 (11760418_a_at) / Fold change /veh RCAN1 (11760418_a_at) / RFU FAM167A (11723789_a_at) / Fold change /veh FAM167A (11723789_a_at) / RFU FAM26E (11764081_at) / Fold change /veh FAM26E (11764081_at) / RFU ISYNA1 (11749810_s_at) / Fold change /veh ISYNA1 (11749810_s_at) / RFU ACY1 (11761880_at) / Fold change /veh ACY1 (11761880_at) / RFU 11764098_at / Fold change /veh 11764098_at / RFU SAMD14 (11745864_x_at) / Fold change /veh SAMD14 (11745864_x_at) / RFU NPB (11741838_a_at) / Fold change /veh NPB (11741838_a_at) / RFU TMPRSS6 (11731388_a_at) / Fold change /veh TMPRSS6 (11731388_a_at) / RFU KRTAP10-2 (11738614_at) / Fold change /veh KRTAP10-2 (11738614_at) / RFU ARHGAP8 /// PRR5-ARHGAP8 (11727945_x_at) / Fold change /veh ARHGAP8 /// PRR5-ARHGAP8 (11727945_x_at) / RFU KRTAP5-7 /// NADSYN1 (11734609_at) / Fold change /veh KRTAP5-7 /// NADSYN1 (11734609_at) / RFU RASL12 (11751679_a_at) / Fold change /veh RASL12 (11751679_a_at) / RFU CDKN2B (11736163_a_at) / Fold change /veh CDKN2B (11736163_a_at) / RFU PRF1 (11729649_at) / Fold change /veh PRF1 (11729649_at) / RFU, ZNF638 /// ZNF638-IT1 / Fold change vs veh, ZNF638 /// ZNF638-IT1 / RFU, PANK3 / Fold change vs veh, PANK3 / RFU, SH3YL1 / Fold change vs veh, SH3YL1 / RFU, ZEB2 / Fold change vs veh, ZEB2 / RFU, NRIP1 / Fold change vs veh, NRIP1 / RFU, PTTG1IP / Fold change vs veh, PTTG1IP / RFU, CAPN2 / Fold change vs veh, CAPN2 / RFU, MED14 / Fold change vs veh, MED14 / RFU, SNORA58 / Fold change vs veh, SNORA58 / RFU, C1orf63 / Fold change vs veh, C1orf63 / RFU, LRRFIP1 / Fold change vs veh, LRRFIP1 / RFU, NDUFAF7 / Fold change vs veh, NDUFAF7 / RFU, SLC12A2 / Fold change vs veh, SLC12A2 / RFU, IBTK / Fold change vs veh, IBTK / RFU, ESF1 / Fold change vs veh, ESF1 / Fold change vs veh, TMEM50B / RFU, TAOK1 / Fold change vs veh, TAOK1 / RFU, ACBD3 / Fold change vs veh, ACBD3 / RFU, TMA16 / Fold change vs veh, TMA16 / RFU, RWDD3 / Fold change vs veh, RWDD3 / RFU, BCAT1 / Fold change vs veh, BCAT1 / RFU, EDEM3 / Fold change vs veh, EDEM3 / RFU, TMEM33 / Fold change vs veh, TMEM33 / RFU, WDR75 / Fold change vs veh, WDR75 / RFU, AHCTF1 / Fold change vs veh, AHCTF1 / RFU, TFRC / Fold change vs veh, TFRC / RFU, ZDHHC17 / Fold change vs veh, ZDHHC17 / RFU, NOM1 / Fold change vs veh, NOM1 / RFU, ARL8B / Fold change vs veh, ARL8B / RFU, ZBTB11 / Fold change vs veh, ZBTB11 / RFU, TAMM41 / Fold change vs veh, TAMM41 / RFU, KIAA1704 /// LOC100996395 / Fold change vs veh, KIAA1704 /// LOC100996395 / RFU, ING1 / Fold change vs veh, ING1 / RFU, TRMT61B / Fold change vs veh, TRMT61B / RFU, FUBP3 / Fold change vs veh, FUBP3 / RFU, TP53 / Fold change vs veh, TP53 / RFU, TNKS2 / Fold change vs veh, TNKS2 / RFU, ZFP14 / Fold change vs veh, ZFP14 / RFU, ACTR2 / Fold change vs veh, ACTR2 / RFU, PPP3R1 / Fold change vs veh, PPP3R1 / RFU, PIK3R1 / Fold change vs veh, PIK3R1 / RFU, HNRNPA1 / Fold change vs veh, HNRNPA1 / RFU, RNF170 / Fold change vs veh, RNF170 / RFU, ZNF28 / Fold change vs veh, ZNF28 / RFU, RNGTT / Fold change vs veh, RNGTT / RFU, OGT / Fold change vs veh, OGT / RFU, BRD1 / Fold change vs veh, BRD1 / RFU, MARS / Fold change vs veh, MARS / RFU, ZNF655 / Fold change vs veh, ZNF655 / RFU, FAHD1 / Fold change vs veh, FAHD1 / RFU, BDP1 / Fold change vs veh, BDP1 / RFU, LRRCC1 / Fold change vs veh, LRRCC1 / RFU, ARID1A / Fold change vs veh, ARID1A / RFU, ZNF146 / Fold change vs veh, ZNF146 / RFU, ZNF330 / Fold change vs veh, ZNF330 / RFU, GPN3 / Fold change vs veh, GPN3 / RFU, C9orf123 / Fold change vs veh, C9orf123 / RFU, N4BP2L2 / Fold change vs veh, N4BP2L2 / RFU, ARFIP1 / Fold change vs veh, ARFIP1 / RFU, FAM179B / Fold change vs veh, FAM179B / RFU, BCL10 / Fold change vs veh, BCL10 / RFU, UHRF1BP1L / Fold change vs veh, UHRF1BP1L / RFU, BET1 / Fold change vs veh, BET1 / RFU, CNOT2 / Fold change vs veh, CNOT2 / RFU, ZNF268 / Fold change vs veh, ZNF268 / Fold change vs veh, ZNF507 / RFU, DGCR2 / Fold change vs veh, DGCR2 / RFU, WDSUB1 / Fold change vs veh, WDSUB1 / Fold change vs veh, HSP90B1 /// MIR3652 / RFU, ADSS / Fold change vs veh, ADSS / RFU, GK / Fold change vs veh, GK / RFU, ZNF148 / Fold change vs veh, ZNF148 / RFU, TAF9 / Fold change vs veh, TAF9 / RFU, SLC1A5 / Fold change vs veh, SLC1A5 / RFU, SLMO2 / Fold change vs veh, SLMO2 / RFU, ABCC4 / Fold change vs veh, ABCC4 / RFU, LOC101060439 /// RAP1B / Fold change vs veh, LOC101060439 /// RAP1B / RFU, RFX7 / Fold change vs veh, RFX7 / RFU, GTPBP10 / Fold change vs veh, GTPBP10 / RFU, CNEP1R1 / Fold change vs veh, CNEP1R1 / RFU, BIVM-ERCC5 /// ERCC5 / Fold change vs veh, BIVM-ERCC5 /// ERCC5 / RFU, ILF3 / Fold change vs veh, ILF3 / RFU 11762660_at / Fold change /veh 11762660_at / RFU VCAN (11757783_s_at) / Fold change /veh VCAN (11757783_s_at) / RFU DDX43 (11728927_at) / Fold change /veh DDX43 (11728927_at) / RFU KRT8 (11758188_x_at) / Fold change /veh KRT8 (11758188_x_at) / RFU NKD1 (11759106_at) / Fold change /veh NKD1 (11759106_at) / RFU SRD5A1 (11742802_a_at) / Fold change /veh SRD5A1 (11742802_a_at) / RFU TPSAB1 /// TPSB2 (11721975_s_at) / Fold change /veh TPSAB1 /// TPSB2 (11721975_s_at) / RFU GSTM3 (11746129_a_at) / Fold change /veh GSTM3 (11746129_a_at) / RFU IL23R (11737362_x_at) / Fold change /veh IL23R (11737362_x_at) / RFU TMEM51 (11727254_a_at) / Fold change /veh TMEM51 (11727254_a_at) / RFU PIWIL2 (11732686_x_at) / Fold change /veh PIWIL2 (11732686_x_at) / RFU ORM1 (11744905_x_at) / Fold change /veh ORM1 (11744905_x_at) / RFU CCDC152 (11743942_at) / Fold change /veh CCDC152 (11743942_at) / RFU ECM1 (11717891_a_at) / Fold change /veh ECM1 (11717891_a_at) / RFU IL23R (11748794_a_at) / Fold change /veh IL23R (11748794_a_at) / RFU TNFAIP8L3 (11732012_x_at) / Fold change /veh TNFAIP8L3 (11732012_x_at) / RFU MBOAT4 (11741988_at) / Fold change /veh MBOAT4 (11741988_at) / RFU 11764193_at / Fold change /veh 11764193_at / RFU TMEM53 (11763286_at) / Fold change /veh TMEM53 (11763286_at) / RFU MAGEB2 (11727129_at) / Fold change /veh MAGEB2 (11727129_at) / RFU TMEM200A (11744735_a_at) / Fold change /veh TMEM200A (11744735_a_at) / RFU CCDC152 (11751479_a_at) / Fold change /veh CCDC152 (11751479_a_at) / RFU FAM211A (11726209_a_at) / Fold change /veh FAM211A (11726209_a_at) / RFU RGS16 (11746705_a_at) / Fold change /veh RGS16 (11746705_a_at) / RFU VCAN (11755009_s_at) / Fold change /veh VCAN (11755009_s_at) / RFU RHOB (11743442_s_at) / Fold change /veh RHOB (11743442_s_at) / RFU RGS16 (11720943_a_at) / Fold change /veh RGS16 (11720943_a_at) / RFU RGS16 (11720944_at) / Fold change /veh RGS16 (11720944_at) / RFU, VPS4B / Fold change vs veh, VPS4B / RFU, CREB1 / Fold change vs veh, CREB1 / RFU, DNAJC13 / Fold change vs veh, DNAJC13 / RFU, GNAQ / Fold change vs veh, GNAQ / RFU, CDK5R1 / Fold change vs veh, CDK5R1 / RFU, ZRANB3 / Fold change vs veh, ZRANB3 / RFU, CUL4A / Fold change vs veh, CUL4A / RFU, CCNY / Fold change vs veh, CCNY / RFU, UFL1 / Fold change vs veh, UFL1 / RFU, COG3 / Fold change vs veh, COG3 / RFU, DIAPH2 / Fold change vs veh, DIAPH2 / RFU, SKA2 / Fold change vs veh, SKA2 / RFU, AFF3 / Fold change vs veh, AFF3 / RFU, LMF1 / Fold change vs veh, LMF1 / RFU, IPO11 / Fold change vs veh, IPO11 / RFU, DFFB / Fold change vs veh, DFFB / RFU, FOXP1 / Fold change vs veh, FOXP1 / RFU, CARD8 / Fold change vs veh, CARD8 / RFU, STRN3 / Fold change vs veh, STRN3 / RFU, ADK / Fold change vs veh, ADK / RFU, RASSF2 / Fold change vs veh, RASSF2 / RFU, WIPF1 / Fold change vs veh, WIPF1 / RFU, LARP1B / Fold change vs veh, LARP1B / RFU, RASA1 / Fold change vs veh, RASA1 / RFU, RB1 / Fold change vs veh, RB1 / RFU, PPFIA1 / Fold change vs veh, PPFIA1 / RFU, MAT2A / Fold change vs veh, MAT2A / RFU, CCT5 / Fold change vs veh, CCT5 / RFU, WDR92 / Fold change vs veh, WDR92 / RFU, CUX1 / Fold change vs veh, CUX1 / RFU, TTC7A / Fold change vs veh, TTC7A / RFU, TMEM135 / Fold change vs veh, TMEM135 / RFU, DEPTOR / Fold change vs veh, DEPTOR / RFU, CPM / Fold change vs veh, CPM / RFU, DNAJB6 / Fold change vs veh, DNAJB6 / RFU, CACNA2D3 / Fold change vs veh, CACNA2D3 / RFU, DTX4 / Fold change vs veh, DTX4 / RFU, TFCP2 / Fold change vs veh, TFCP2 / RFU, GMCL1 /// GMCL1P1 / Fold change vs veh, GMCL1 /// GMCL1P1 / RFU, AEBP2 / Fold change vs veh, AEBP2 / RFU, SNHG1 /// SNORD22 /// SNORD25 /// SNORD26 /// SNORD27 /// SNORD28 /// SNORD29 /// SNORD31 / Fold change vs veh, SNHG1 /// SNORD22 /// SNORD25 /// SNORD26 /// SNORD27 /// SNORD28 /// SNORD29 /// SNORD31 / Fold change (Aza/veh), C12orf56 (ProbeSet 11735607_a_at) / Fold change (ACY-1035/veh), C12orf56 (ProbeSet 11735607_a_at) / Fold change (Aza/veh), FGFR1OP (ProbeSet 11751329_s_at) / Fold change (ACY-1035/veh), FGFR1OP (ProbeSet 11751329_s_at) / Fold change (Aza/veh), VPS36 (ProbeSet 11739960_a_at) / Fold change (ACY-1035/veh), VPS36 (ProbeSet 11739960_a_at) / RFU SYPL1 (11715823_x_at) / Fold change /veh SYPL1 (11715823_x_at) / RFU IGFBP7 (11715501_s_at) / Fold change /veh IGFBP7 (11715501_s_at) / RFU REEP3 (11722064_at) / Fold change /veh REEP3 (11722064_at) / RFU IGLL1 (11728026_x_at) / Fold change /veh IGLL1 (11728026_x_at): dose or concentration left out as unconfirmed
Settings: ProbeSet 11733831_s_at; LIST D

Nc1ncn([C@@H]2O[C@H](CO)[C@@H](O)[C@H]2O)c(=O)n1 [azacitidine]
RFU, GMCL1 /// GMCL1P1: 32.38 RFU
